Patent US20190101533A1, “ANIMAL MODEL FOR STUDYING ZCCHC6 IN BONE DISEASE AND DEVELOPMENT” (Northeast Ohio Medical University, priority 2016, published 2019)

Tested on: human OA chondrocytes
Experiment: IL-1β stimulation of human OA chondrocytes: ZCCHC6, ZCCHC11 and IL-6 expression (TaqMan, ELISA, Western immunoblotting)
Assay type: cell-based
Experimental: Chondrocytes were derived by enzymatic digestion of human cartilage obtained from OA patients (n=14) undergoing knee joint replacement. Chondrocytes were stimulated with IL-1β (5 ng/ml) or treated with Actinomycin D (5 μg/ml) or NFκB inhibitor SC514 (75 μM) or JNK inhibitor (25 μM). Total RNA from grounded cartilage and from chondrocytes was purified using Qiagen RNeasy kit (Qiagen). Reverse transcription was performed using the Quantitect Reverse Transcription kit and the ZCCHC6 or IL-6 mRNA was quantified using TaqMan assays. SiRNA-mediated depletion of ZCCHC6 in human chondrocytes was used to study the effect on inflammatory cytokine expression using a cytokine array (Ray Biotech). Protein expression of IL-6 was studied using Western immunoblotting and quantified by ELISA in culture supernatants. Results were derived using Sigma Plot 12.3 package and p<0.05 was considered significant.
We next determined whether IL-1β induces expression of IL-6 correlates with the expression of ZCCHC6 in human OA chondrocytes. Human OA chondrocytes were cultured and treated with IL-1β as above and the mRNA expression of IL-6 was quantified by TaqMan assay and secreted IL-6 was quantified using an ELISA kit specific for human IL-6 (R&D Systems, Catalog No. D0650, sensitivity of 2.17 pg IL-6/ml). ZCCHC6 protein expression was determined by Western immunoblotting using an antibody specific for the N-terminus of the protein (Santa Cruz, sc-137947).

[1] = human OA chondrocytes stimulated with IL-1β (5 ng/ml) for 24 h

## IL-1β: major cytokine involved in cartilage catabolism in osteoarthritis; used to stimulate chondrocytes
[1]
  expression of ZCCHC6 protein (Western immunoblotting): highly induced
  secreted IL-6 in the culture medium (ELISA): secreted large amounts of IL-6
Human chondrocytes treated with IL-1β
  expression of ZCCHC11: marginally upregulated
